According to patent publication US6527981B1, “Azole/amine oxide preservatives” (Lonza Inc., priority 1999, dated 2003):
Converted amounts (≈) assume the structure as drawn. Like-named read-outs stand apart in the source and are kept apart here.

Key:
[1] = test system: T. versicolor (white rot fungi); test: agar dilution plate method, wood rot fungi (MIC, IC50, percent retardation); type: cell-based; conditions: for MIC: Trametes versicolor; for IC50 T. versicolor / T. versicolor IC50: Table2D curve fitting
[2] = test system: C. globosum (soft rot decay fungi); test: as above; type: cell-based; conditions: for MIC: Chaetomium globosum
[3] = test system: P. placenta (brown rot fungi); test: as above; type: cell-based; conditions: for IC50 P. placenta / P. placenta IC50: Table2D curve fitting
[4] = test system: G. trabeum (brown rot fungi); test: as above; type: cell-based; conditions: for MIC: Gloeophyllum trabeum; for IC50 G. trabeum / G. trabeum IC50: Table2D curve fitting
[5] = 25° C., cited from earlier work
[6] = amine oxide alone, 100% growth retardation, read-out: MIC (ppm of amine oxides) T. versicolor
[7] = amine oxide alone, 100% growth retardation, read-out: MIC (ppm of amine oxides) P. placenta
[8] = amine oxide alone, 100% growth retardation, read-out: MIC (ppm of amine oxides) G. trabeum
[9] = amine oxide alone, 100% growth retardation, read-out: MIC (ppm of amine oxides) C. globosum
[10] = amine oxide alone, 100% growth retardation
[11] = ppm of amine oxide or didecyldimethyl ammonium chloride
[12] = ppm of amine oxide or didecyldimethyl ammonium chloride, Table2D curve fitting
[13] = azole alone, read-out: T. versicolor MIC
[14] = azole alone, read-out: C. globosum MIC
[15] = azole alone, read-out: P. placenta MIC
[16] = azole alone, read-out: G. trabeum MIC
[17] = Table 8, ppm of amine oxide or didecyldimethyl ammonium chloride

Row | Compound | MIC [1, 6] [µg/mL] | Qa, concentration of amine oxide alone required to yield 100% retardation, T. versicolor ([1]; amine oxide alone) [ppm] | Qa, concentration of amine oxide alone required to yield 100% retardation, P. placenta ([3]; amine oxide alone) [ppm] | MIC [3, 7] [µg/mL] | MIC [4, 8] [µg/mL] | Qa, concentration of amine oxide alone required to yield 100% retardation, G. trabeum ([4]; amine oxide alone) [ppm] | MIC (ppm of amine oxides) T. versicolor [1, 10] [ppm] | MIC (ppm of amine oxides) C. globosum [2, 10] [ppm] | MIC (ppm of amine oxides) P. placenta [3, 10] | MIC (ppm of amine oxides) G. trabeum [4, 10] [ppm] | further results
1 | CCCCCCCCCCCC[N+](C)(C)[O-] [Dodecyl-DMAO, dodecyldimethylamine oxide] | 250 (≈ 1090 µM) | 250 | 250 | 250 (≈ 1090 µM) | 250 (≈ 1090 µM) | 250 | – | – | – | – | MIC ([2]; read-out: MIC (ppm of amine oxides) C. globosum): > 1000 µg/mL
2 | CCCCCCCC[N+](C)(C)[O-] [Octyldimethylamine oxide, octyl dimethylamine oxide] | 750 (≈ 4330 µM) | 750 | 1000 | 1000 (≈ 5770 µM) | 1000 (≈ 5770 µM) | 1000 | – | – | – | – | MIC [2, 9]: > 1000 µg/mL
3 | coco-alkyl-di(hydroxyethyl)amine oxide [Coco-di(hydroxyethyl)-amine oxide] | – | – | – | – | – | – | 500 | >1000 | 500 ppm | 500 | –
4 | CCCCCCCCCCCCCCCCCC[N+](C)(C)[O-] [Octadecyl-DMAO, octadecyl dimethylamine oxide] | > 1000 | 1000 | 1000 | > 1000 | > 1000 | 1000 | – | – | – | – | MIC [2, 9]: > 1000 µg/mL
5 | CCCCCCCCCC[N+](C)(C)[O-] [Decyl-DMAO, decyl dimethylamine oxide] | 750 (≈ 3720 µM) | 750 | 500 | 500 (≈ 2480 µM) | 250 (≈ 1240 µM) | 250 | – | – | – | – | MIC [2, 9]: > 1000 µg/mL
6 | CCCCCCCCCCCCCCCCCCCCCC[N+](C)(C)[O-] [Behenyl DMAO] | – | 1000 | 1000 | – | – | 1000 | >1000 | >1000 | >1000 ppm | >1000 | –
7 | CCCCCCCCCC[N+](C)(C)CCCCCCCCCC.[Cl-] [Bardac ® 2280, didecyldimethyl ammonium chloride] | – | – | – | – | – | – | – | – | – | – | MIC ([1]; Table 8, ppm of amine oxide or didecyldimethyl ammonium chloride, read-out: MIC T. versicolor): > 1000 µg/mL; IC50 T. versicolor [1, 11]: 28 ppm; MIC ([2]; read-out: MIC C. globosum): > 1000 µg/mL; IC50 C. globosum [2, 12]: 28 ppm; MIC ([3]; Table 8, ppm of amine oxide or didecyldimethyl ammonium chloride, read-out: MIC P. placenta): 1000 µg/mL; IC50 P. placenta [3, 11]: <5 ppm; MIC ([4]; Table 8, ppm of amine oxide or didecyldimethyl ammonium chloride, read-out: MIC G. trabeum): > 1000 µg/mL; IC50 G. trabeum [4, 11]: 8 ppm
8 | CCCCC(C#N)(Cn1cncn1)c1ccc(Cl)cc1 (stereo not shown) [Myclobutanil, myclobutanil] | – | – | – | – | – | – | – | – | – | – | MIC [1, 13]: 50 µg/mL (≈ 173 µM); T. versicolor IC50 ([1]; azole alone): 6 ppm; MIC [2, 14]: > 50 µg/mL; P. placenta IC50 ([3]; azole alone): 13 ppm; MIC [3, 15]: 50 µg/mL (≈ 173 µM); MIC [4, 16]: > 50 µg/mL; G. trabeum IC50 ([4]; azole alone): 4.3 ppm; Solubility in Water^b ([5]; Material Safety Data Sheet): 142 ppm at 25 °C; Solubility in water^a ([5]; The Pesticide Manual, 11th Edition): 142 ppm/25 °C
9 | CCCCCCCCCCCC[N+]1([O-])CCOCC1 [Lauryl morpholine N-oxide, lauryl morpholine N-oxide] | – | 750 | 500 | – | – | 1000 | 750 | >1000 | 500 ppm | 1000 | –
10 | coco-alkyl (C12-C16) dimethylamine oxide [Coco-DMAO] | – | 750 | – | – | – | 500 | 750 | >1000 | 500-1000 ppm | 500 | MIC T. versicolor [1, 17]: 750 ppm; IC50 T. versicolor [1, 11]: 51 ppm; MIC C. globosum [2, 17]: >1000 ppm; IC50 C. globosum [2, 12]: 47 ppm; MIC P. placenta [3, 17]: 1000 ppm; IC50 P. placenta [3, 11]: 5 ppm; MIC G. trabeum [4, 17]: 500 ppm; IC50 G. trabeum [4, 11]: 9 ppm
11 | CCCC1COC(Cn2cncn2)(c2ccc(Cl)cc2Cl)O1 (stereo not shown) [Propiconazole, propiconazole] | – | – | – | – | – | – | – | – | – | – | MIC [1, 13]: 50 µg/mL (≈ 146 µM); Qb, concentration of azole alone required to yield 100% retardation, T. versicolor ([1]; azole alone): 50 ppm; T. versicolor IC50 ([1]; azole alone): 3 ppm; MIC [2, 14]: > 50 µg/mL; C. globosum IC50 ([2]; azole alone, Table2D curve fitting): 11.7 ppm; Qb, concentration of azole alone required to yield 100% retardation, P. placenta ([3]; azole alone): 50 ppm; P. placenta IC50 ([3]; azole alone): 0.7 ppm; MIC [3, 15]: 50 µg/mL (≈ 146 µM); MIC [4, 16]: > 50 µg/mL; Qb, concentration of azole alone required to yield 100% retardation, G. trabeum ([4]; azole alone): 50 ppm; G. trabeum IC50 ([4]; azole alone): 0.9 ppm
